Data taken from publication PMC8509773, “3-Pyridinylidene Derivatives of Chemically Modified Lupane and Ursane Triterpenes as Promising Anticancer Agents by Targeting Apoptosis” (International Journal of Molecular Sciences, 2021).
Marks after values point to notes of the source that are not given here.

Key:
Type in all cases: cell-based, human
Bak gene = assay: rtPCR gene expression in Sk-Mel-28 cells
Text: (§1) We applied rtPCR techniques in order to investigate the effect of our two compounds on the anti-apoptotic Bcl-XL and Bcl-2 genes as well as the proapoptotic Bak and Bad genes (Table 4). […] Therefore, we may presume that the apoptotic mechanism of both compounds against the A375 cells is not mediated by the tested genes or that alterations in their ratio are the underlying mechanism.

Bcl-XL gene = assay: rtPCR gene expression in Sk-Mel-28 cells
Text: as §1

A375 melanoma cells = assay: DAPI staining assay; conditions: 24 h
Experimental: (§2) For this purpose, the melanoma cell lines selected were A375, RPMI, and SK-MEL-28, given that these three lines have very good correlation coefficient scores with tumor cells originating from a wide range of malignant tumors, based on transcriptional similarity. This feature can also lead to increased clinical applicability potential for the tested substances. The two compounds were tested against three human melanoma cell lines: A375, RPMI, and SK-MEL-28 melanoma cell lines by applying 0.1, 1, and 5 μM solutions, respectively. 4′,6-Diamidino-2-phenylindole (DAPI) is a DNA-specific marker which allows the direct fluorescent blue staining of nuclei against a dark background, widely used in life sciences research. In effect, the DAPI stain binds to chromatin within the nuclei and provides their clear outline under the blue light (405 nm) while the cytoplasmic medium remains non-fluorescent. Moreover, due to its lack of interference with DNA–linker interactions, DAPI stain can provide fine details of nuclei’ shapes instead of merely highlighting their centers which contain the highest concentration of nucleic acids.
(§3) The DAPI assay was performed on three human melanoma cell lines: A375, RPMI, and SK-MEL-28. The cells were cultured in 24-well plates at 2x10^5 cells/well; compounds 6 and 7 in three different concentrations (0.1, 1, and 5 μM); and three DMSO concentrations (0.1, 1, and 5 μM) were used to stimulate cells. The immunofluorescent staining technique was performed according to a previously described protocol and adapted to our laboratory conditions. Thus, after 24 h of stimulation, the cells were fixed with 4% paraformaldehyde and incubated at room temperature for 1 h. Cell permeability was 30 min later performed with 2% Triton X solution in phosphate-buffered saline (PBS). The 300 nM 4’,6-diamidino-2-phenylindole (DAPI) staining was used to visualize cell nuclei under the fluorescence microscope at 40x magnification using CellSens V1.15 software (Olympus, Tokyo, Japan) and Image J software.

RPMI melanoma cells [1] = assay: DAPI staining assay; conditions: 24 h
Experimental: as §2, §3

SK-MEL-28 melanoma cells = assay: DAPI staining assay; conditions: 24 h
Experimental: as §2, §3

RPMI melanoma cells [2] = assay: Cell morphology assessment; conditions: 5 μM, 24 h
Experimental: In order to further investigate the biological effects of these compounds against three human melanoma cell lines, their effect on cell morphology was assessed.
In terms of the RPMI melanoma cell line (Figure 10), a decrease in the number of cells can be observed in direct proportion to the tested concentration; for both compounds, a proapoptotic change occurred in the cellular morphology.

| Compound | Bak gene expression, Mean (Bak gene) | Bcl-XL gene expression, Mean (Bcl-XL gene) | Nuclear changes, DAPI staining (A375 melanoma cells; A375, 0.1 μM) | Nuclear changes, DAPI staining (A375 melanoma cells; A375, 1 μM) | Nuclear changes, DAPI staining (A375 melanoma cells; A375, 5 μM) | Nuclear changes, DAPI staining (RPMI melanoma cells [1]; 0.1 μM) | Nuclear changes, DAPI staining (RPMI melanoma cells [1]; 5 μM) | Nuclear changes, DAPI staining (SK-MEL-28 melanoma cells; SK-Mel-28, 0.1 μM) | Nuclear changes, DAPI staining (SK-MEL-28 melanoma cells; SK-Mel-28, 5 μM) | Effect on cell morphology (RPMI melanoma cells [2]) | Nuclear changes, DAPI staining (RPMI melanoma cells [1]; 1 μM) | Nuclear changes, DAPI staining (SK-MEL-28 melanoma cells; SK-Mel-28, 1 μM) |
| --- | --- | --- | --- | --- | --- | --- | --- | --- | --- | --- | --- | --- |
| C[C@H]1[C@@H]2[C@H]3CC[C@@H]4[C@@]5(C)C/C(=C\c6cccnc6)C(=O)C(C)(C)[C@@H]5CC[C@@]4(C)[C@]3(C)CC[C@]23CO[C@@]1(C)[C@@H](C(=O)/C=C/c1cccnc1)C3 [Compound 6, 3-Oxo-2-(3-pyridinylidene)-21-[3-(2E-pyridinyl)-prop-2-en-1-one]-20β,28-epoxy-18α,19βH-ursane] | 22.826 *** | 1.606 | nuclear fragmentation | nuclear fragmentation | chromatin becomes condensed | massive nucleus condensation and fragmentation | occurrence of nuclear residues | massive nucleus condensation and fragmentation | occurrence of nuclear residues | formation of vacuoles within the cell cytoplasm |  |  |
| COC(=O)[C@]12CC[C@@H](C(=O)/C=C/c3cccnc3)[C@@H]1[C@H]1CC[C@@H]3[C@@]4(C)C/C(=C\c5cccnc5)C(=O)C(C)(C)[C@@H]4CC[C@@]3(C)[C@]1(C)CC2 [Compound 7, methyl 2,30-bis-(3-pyridinylidene)-3,20-dioxo-lup-28-oate] | 59.543 ** | 3.826 | nucleus fragmentation | condensation of chromatin | condensation of chromatin | slight nucleus fragmentation | nuclear fragmentation and chromatin condensation | slight nucleus fragmentation | nuclear fragmentation and chromatin condensation |  | nuclear fragmentation and chromatin condensation | nuclear fragmentation and chromatin condensation |
